Reference: patent US20180098954A1, “AMELIORATING AGENT FOR EXERCISE-INDUCED GASTROINTESTINAL DISORDERS” (AJINOMOTO CO., INC., priority 2015, published 2018)

Assays:
CD2F1 mice [1] = test: feed intake after totally exhausting treadmill exercise for 3 consecutive days; assay type: in vivo; conditions: male CD2F1 mice; normal diet added with cystine (2%) in place of casein for 8 days; after totally exhausting exercise for 3 consecutive days; versus exercise group; P<0.05 (FIG. 5)
Description: Athletes are known to experience gastrointestinal upset and loss of appetite in scenes where intense training such as a camp training and the like are repeated. Therefore, the improving effect of cystine on exercise-induced decrease in appetite was studied by the following test. 6-Week-old male CD2F1 mice (Charles River Laboratories Japan, Inc.) were divided into 3 groups (non-exercise group, exercise group, and exercise+2% cystine group), and a normal diet (AIN-93G composition) was given to non-exercise group and exercise group, and a normal diet (AIN-93G composition) added with cystine (2%) in place of casein was given to exercise+2% cystine group, each for 8 days. Thereafter, exercise group and exercise+2% cystine group were made to run in a treadmill to total exhaustion for 3 consecutive days, and non-exercise group was not allowed to exercise (see FIG. 4). While exercise group and exercise+2% cystine group ran, non-exercise group was fasted and deprived of water. A new feed was given every day after completion of the totally exhausting exercise, recovered the next day and the amount of the remaining feed was measured, from which feed intake was calculated.

CD2F1 mice [2] = test: gastrointestinal tract permeability of FD4 (FITC-dextran) after 4 hr running in a hamster wheel; assay type: in vivo; conditions: male CD2F1 mice, FD4 500 mg/kg orally
Description: It is known that high molecular weight substances that are not usually absorbed from the gastrointestinal tract penetrate the intestine and enter the blood when the barrier function of the gastrointestinal tract is declined (FIG. 1). Therefore, the improving effect of cystine on exercise-induced decline in gastrointestinal tract barrier function was studied by the following test. […] According to the method described in Cani et al., Gut 2009, 58(8) : 1091-1103, which is incorporated herein by reference in its entirety, FD4 concentration that leaked into the blood from the gastrointestinal tract was calculated by measuring the fluorescence intensity in the blood, based on which the gastrointestinal tract permeability of FD4 was evaluated (see FIG. 2). To be specific, blood was collected from the mice under isoflurane anesthesia, the collected blood was centrifuged to give plasma, the obtained plasma was diluted 2-fold with phosphate buffer, and fluorescence intensity was measured under the conditions of excitation wavelength: 485 nm, detection wavelength: 535 nm (measurement device SPECTRA MAX GEMINI EM Molecular Devices Japan). […] After completion of running, the gastrointestinal tract permeability of FD4 was evaluated in the same manner as in Example 1.

N[C@@H](CSSC[C@H](N)C(=O)O)C(=O)O [cystine]
relative feed intake after exercise (Pre run as 100%) (CD2F1 mice [1]): significantly high as compared to the exercise group | FD4 concentration in blood (gastrointestinal tract permeability), compared to Gln+Ex (CD2F1 mice [2]; cystine (2%) diet versus glutamine (2%) diet for 7 days, blood after 1 hr (FIG. 3)): lower FD4 concentration in blood as compared to the group (Gln+Ex) | FD4 concentration in blood (gastrointestinal tract permeability), compared to Ex (CD2F1 mice [2]; normal diet added with cystine (2%) for 7 days, blood after 1 hr, versus exercise group on normal diet, P<0.05 (FIG. 3)): lower FD4 concentration in blood as compared to Ex
